Data reported in ChEMBL document CHEMBL1201862, “PubChem BioAssay data set” (2004).
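Step 1: Grow cells in 96-well plates. Step 2: Expose to compound for 48 hours at 5 concentrations. Step 3: Interpolate endpoints linearly; if unreached, use highest concentration. Here, GI50 denotes the concentration required for 50% inhibition of growth.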 Active and inactive are the calls of the source. No stated cut-off is given here; in the data, active = GI50 up to about 1.1 µM and inactive = higher.

Columns and labels:
Assay in all cases: DTP human tumour cell line panel, 48 h
[1] = system: 786-0
[2] = system: A498
[3] = system: A549
[4] = system: ACHN
[5] = system: CAKI-1
[6] = system: CCRF-CEM
[7] = system: COLO 205
[8] = system: DLD-1
[9] = system: DMS-114
[10] = system: DMS-273
[11] = system: HCC 2998
[12] = system: HCT-116
[13] = system: HCT-15
[14] = system: HL-60
[15] = system: HOP-18
[16] = system: HOP-62
[17] = system: HOP-92
[18] = system: HT-29
[19] = system: IGROV-1
[20] = system: K562
[21] = system: KM-20L2
[22] = system: KM12
[23] = system: LOX IMVI
[24] = system: LXFL 529
[25] = system: M14
[26] = system: M19-MEL
[27] = system: MOLT-4
[28] = system: Malme-3M
[29] = system: NCI-H226
[30] = system: NCI-H460
[31] = system: NCI-H522
[32] = system: OVCAR-4
[33] = system: OVCAR-5
[34] = system: OVCAR-8
[35] = system: RPMI-8226
[36] = system: RXF 393
[37] = system: RXF 631
[38] = system: SF-268
[39] = system: SF-295
[40] = system: SF-539
[41] = system: SK-MEL-2
[42] = system: SK-MEL-5
[43] = system: SK-OV-3
[44] = system: SN12C
[45] = system: SNB-19
[46] = system: SNB-75
[47] = system: SNB-78
[48] = system: SR
[49] = system: SW-620
[50] = system: TK-10
[51] = system: U-251
[52] = system: UACC-257
[53] = system: UACC-62
[54] = system: UO-31
[55] = system: EKVX
[56] = system: NCI-H23
[57] = system: OVCAR-3
[58] = system: SK-MEL-28

**Q.** Which GI50 [1] does the source give for `COc1cc2c(c(OC)c1OC)CCNC2C1=C(O)COC1=O` (stereo not drawn) here?
**A.** > 100 µM (inactive)

**Q.** What about the GI50 [2] of the same molecule?
**A.** > 100 µM (inactive)

**Q.** What about the GI50 [3] of the same molecule?
**A.** > 100 µM (inactive)

**Q.** What about the GI50 [4] of the same molecule?
**A.** > 100 µM (inactive)

**Q.** And the GI50 [5]?
**A.** > 100 µM (inactive)

**Q.** What about the GI50 [6] of the same molecule?
**A.** > 100 µM (inactive)

**Q.** And the GI50 [7]?
**A.** > 100 µM (inactive)

**Q.** And the GI50 [8]?
**A.** > 100 µM (inactive)

**Q.** And the GI50 [9]?
**A.** > 100 µM (inactive)

**Q.** What about the GI50 [10] of the same molecule?
**A.** > 100 µM (inactive)

**Q.** What about the GI50 [11] of the same molecule?
**A.** > 100 µM (inactive)

**Q.** And the GI50 [12]?
**A.** > 100 µM (inactive)

**Q.** And the GI50 [13]?
**A.** > 100 µM

**Q.** What about the GI50 [14] of the same molecule?
**A.** > 100 µM (inactive)

**Q.** What about the GI50 [15] of the same molecule?
**A.** 95.5 µM (inactive)

**Q.** What about the GI50 [16] of the same molecule?
**A.** > 100 µM (inactive)

**Q.** And the GI50 [17]?
**A.** > 100 µM (inactive)

**Q.** What about the GI50 [18] of the same molecule?
**A.** > 100 µM (inactive)

**Q.** And the GI50 [19]?
**A.** > 100 µM (inactive)

**Q.** And the GI50 [20]?
**A.** > 100 µM (inactive)

**Q.** What about the GI50 [21] of the same molecule?
**A.** > 100 µM (inactive)

**Q.** And the GI50 [22]?
**A.** > 100 µM (inactive)

**Q.** What about the GI50 [23] of the same molecule?
**A.** > 100 µM (inactive)

**Q.** And the GI50 [24]?
**A.** > 100 µM (inactive)

**Q.** What about the GI50 [25] of the same molecule?
**A.** > 100 µM (inactive)

**Q.** What about the GI50 [26] of the same molecule?
**A.** > 100 µM (inactive)

**Q.** What about the GI50 [27] of the same molecule?
**A.** > 100 µM (inactive)

**Q.** And the GI50 [28]?
**A.** > 100 µM (inactive)

**Q.** What about the GI50 [29] of the same molecule?
**A.** 28.9 µM (inactive)

**Q.** What about the GI50 [30] of the same molecule?
**A.** 92.9 µM (inactive)

**Q.** And the GI50 [31]?
**A.** > 100 µM (inactive)

**Q.** What about the GI50 [32] of the same molecule?
**A.** > 100 µM (inactive)

**Q.** And the GI50 [33]?
**A.** > 100 µM (inactive)

**Q.** What about the GI50 [34] of the same molecule?
**A.** > 100 µM (inactive)

**Q.** What about the GI50 [35] of the same molecule?
**A.** 88.3 µM (inactive)

**Q.** What about the GI50 [36] of the same molecule?
**A.** > 100 µM (inactive)

**Q.** And the GI50 [37]?
**A.** > 100 µM (inactive)

**Q.** And the GI50 [38]?
**A.** > 100 µM (inactive)

**Q.** What about the GI50 [39] of the same molecule?
**A.** > 100 µM (inactive)

**Q.** What about the GI50 [40] of the same molecule?
**A.** > 100 µM (inactive)

**Q.** And the GI50 [41]?
**A.** 61.9 µM (inactive)

**Q.** What about the GI50 [42] of the same molecule?
**A.** 95.1 µM (inactive)

**Q.** And the GI50 [43]?
**A.** > 100 µM (inactive)

**Q.** What about the GI50 [44] of the same molecule?
**A.** > 100 µM (inactive)

**Q.** What about the GI50 [45] of the same molecule?
**A.** > 100 µM (inactive)

**Q.** What about the GI50 [46] of the same molecule?
**A.** > 100 µM (inactive)

**Q.** What about the GI50 [47] of the same molecule?
**A.** > 100 µM (inactive)

**Q.** What about the GI50 [48] of the same molecule?
**A.** > 100 µM (inactive)

**Q.** And the GI50 [49]?
**A.** > 100 µM (inactive)

**Q.** And the GI50 [50]?
**A.** > 100 µM (inactive)

**Q.** And the GI50 [51]?
**A.** > 100 µM (inactive)

**Q.** What about the GI50 [52] of the same molecule?
**A.** > 100 µM (inactive)

**Q.** What about the GI50 [53] of the same molecule?
**A.** 55.6 µM (inactive)

**Q.** What about the GI50 [54] of the same molecule?
**A.** > 100 µM (inactive)

**Q.** `O=C(CC(=O)Nc1ccccc1O)Nc1ccccc1O` was tested. Which GI50 [1] did it give?
**A.** 19.6 µM (inactive)

**Q.** What about the GI50 [2] of the same molecule?
**A.** > 100 µM (inactive)

**Q.** And the GI50 [3]?
**A.** 29.9 µM (inactive)

**Q.** And the GI50 [4]?
**A.** 9.86 µM (inactive)

**Q.** And the GI50 [5]?
**A.** 68.1 µM (inactive)

**Q.** And the GI50 [6]?
**A.** 3.96 µM (inactive)

**Q.** What about the GI50 [7] of the same molecule?
**A.** 18.5 µM (inactive)

**Q.** And the GI50 [8]?
**A.** 12.5 µM (inactive)

**Q.** What about the GI50 [9] of the same molecule?
**A.** 1.75 µM (inactive)

**Q.** What about the GI50 [10] of the same molecule?
**A.** 25.9 µM (inactive)

**Q.** And the GI50 [55]?
**A.** > 100 µM (inactive)

**Q.** What about the GI50 [11] of the same molecule?
**A.** 24.7 µM (inactive)

**Q.** What about the GI50 [12] of the same molecule?
**A.** 13.2 µM (inactive)

**Q.** What about the GI50 [13] of the same molecule?
**A.** 5.68 µM

**Q.** And the GI50 [14]?
**A.** 1.83 µM (inactive)

**Q.** What about the GI50 [15] of the same molecule?
**A.** 19.4 µM (inactive)

**Q.** What about the GI50 [16] of the same molecule?
**A.** 80.9 µM (inactive)

**Q.** And the GI50 [17]?
**A.** > 100 µM (inactive)

**Q.** And the GI50 [18]?
**A.** 27.9 µM (inactive)

**Q.** What about the GI50 [19] of the same molecule?
**A.** 37.4 µM (inactive)

**Q.** What about the GI50 [20] of the same molecule?
**A.** 6.79 µM (inactive)

**Q.** What about the GI50 [21] of the same molecule?
**A.** 22.9 µM (inactive)

**Q.** And the GI50 [22]?
**A.** 10.8 µM (inactive)

**Q.** What about the GI50 [24] of the same molecule?
**A.** 8.91 µM (inactive)

**Q.** And the GI50 [25]?
**A.** 16.1 µM (inactive)

**Q.** What about the GI50 [26] of the same molecule?
**A.** 15 µM (inactive)

**Q.** What about the GI50 [27] of the same molecule?
**A.** 5.62 µM (inactive)

**Q.** And the GI50 [28]?
**A.** 22.8 µM (inactive)

**Q.** What about the GI50 [29] of the same molecule?
**A.** 63.1 µM (inactive)

**Q.** And the GI50 [56]?
**A.** 22.2 µM (inactive)

**Q.** And the GI50 [30]?
**A.** 18.3 µM (inactive)

**Q.** What about the GI50 [31] of the same molecule?
**A.** 7.48 µM (inactive)

**Q.** What about the GI50 [57] of the same molecule?
**A.** 14.9 µM (inactive)

**Q.** What about the GI50 [32] of the same molecule?
**A.** 34.3 µM (inactive)

**Q.** And the GI50 [33]?
**A.** 59.4 µM (inactive)

**Q.** What about the GI50 [34] of the same molecule?
**A.** 14.2 µM (inactive)

**Q.** What about the GI50 [35] of the same molecule?
**A.** 5.13 µM (inactive)

**Q.** What about the GI50 [37] of the same molecule?
**A.** 9.79 µM (inactive)

**Q.** What about the GI50 [38] of the same molecule?
**A.** 26.9 µM (inactive)

**Q.** What about the GI50 [39] of the same molecule?
**A.** 39 µM (inactive)

**Q.** And the GI50 [40]?
**A.** 19.1 µM (inactive)

**Q.** What about the GI50 [58] of the same molecule?
**A.** 13.8 µM (inactive)

**Q.** What about the GI50 [42] of the same molecule?
**A.** 10 µM (inactive)

**Q.** And the GI50 [43]?
**A.** > 100 µM (inactive)

**Q.** What about the GI50 [44] of the same molecule?
**A.** 16.3 µM (inactive)

**Q.** What about the GI50 [45] of the same molecule?
**A.** > 100 µM (inactive)

**Q.** What about the GI50 [46] of the same molecule?
**A.** 18.6 µM (inactive)

**Q.** What about the GI50 [47] of the same molecule?
**A.** > 100 µM (inactive)

**Q.** What about the GI50 [49] of the same molecule?
**A.** 4.6 µM (inactive)

**Q.** And the GI50 [50]?
**A.** 53 µM (inactive)

**Q.** And the GI50 [51]?
**A.** 23.9 µM (inactive)

**Q.** And the GI50 [52]?
**A.** 15.5 µM (inactive)

**Q.** What about the GI50 [53] of the same molecule?
**A.** 3.24 µM (inactive)

**Q.** What about the GI50 [54] of the same molecule?
**A.** 12.1 µM (inactive)
